# In patent US11357779B2 (G1 Therapeutics, Inc., priority 2018, dated 2022):
# Read-outs that look alike come from different tables or passages of the source.
# Assay: Plasma concentration versus time of Compound I and metabolite Compound III in patients dosed QD or BID with Form B of Compound II plus fulvestrant
# Type: in vivo, human
# Details: human, plasma, oral
# Description: Patients were enrolled into 1 of 2 parallel, independently operating, dose-escalation dosing cohorts with Form B of Compound II administered continuously either once daily (QD) or twice daily (BID) with food with fixed-dose fulvestrant (intramuscularly every 14 days for the first three injections and then every 28 days). Pre- or perimenopausal patients also received goserelin for the duration of study treatment. A […] agonist was started at least 28 days before the first dose of Form B, and those patients who were taking another LHRH agonist were switched to goserelin on Day 1. Patients were split into […] cohorts providing once a day (QD) dosing of 200 mg, 300 mg, 400 mg, 500 mg, or 650 mg of Form B, or twice a day (BID) dosing of 100 mg, 150 mg, or 200 mg of Form B. The second dose in BID cohorts was not administered in the evening until at least 12 hours after the initial morning dose of Form B. The dosing cohorts for Form B of Compound II are provided in Table 1.
# Blood samples were collected at the following time points relative to the morning dose of Form B at Day 1 and at Day 29: pre-dose (0 hour) and 1, 2, 3, 4, 6, 8, 10, 12 (prior to the evening dose in the BID cohorts), and 24 (prior to the next day's morning dose) hours after dosing. A 5-minute time window was allowed for samples collected between the predose and 3 hours after Form B dosing. A 15-minute window was allowed for samples collected between 4 to 12 hours after Form B dosing. A 1-hour window was allowed for the sample collected 24 hours after Form B dosing. Blood samples for Compound I PK trough levels were collected pre-dose at Day 8, Day 15, and Day 22 prior to the morning administration of Compound I. Plasma concentrations of Compound I and its metabolite, Compound III, were measured using validated methods.
# Analysis of plasma concentration versus time data for calculation of standard pharmacokinetic (PK) parameters following oral administration was conducted using Phoenix WinNonlin version 6.3 using actual blood sampling times.
compound,measurement,setting,value
"CC(C)N1CCN(c2ccc(Nc3ncc4cc5n(c4n3)C3(CCCCC3)CNC5=O)nc2)CC1 [Compound I, 2′-((5-(4-isopropylpiperazin-1-yl)pyridin-2-yl)amino)-7′,8′-dihydro-6′H-spiro[cyclohexane-1,9′-pyrazino[1′,2′:1,5]pyrrolo[2,3-d]pyrimidin]-6′-one]",concentration at 3 h,"200 mg, 200 mg QD of Form B, Day 29, 3.0 h, Median, read-out: Compound I Concentration",11.8 ng/mL
same,concentration at 4 h,"200 mg, 200 mg QD of Form B, Day 29, 4.0 h, Mean, read-out: Compound I Concentration",17.5 ng/mL
same,concentration at 4 h,"200 mg, 200 mg QD of Form B, Day 29, 4.0 h, Median, read-out: Compound I Concentration",18.8 ng/mL
same,concentration at 6 h,"200 mg, 200 mg QD of Form B, Day 29, 6.0 h, Mean, read-out: Compound I Concentration",18.5 ng/mL
same,concentration at 6 h,"200 mg, 200 mg QD of Form B, Day 29, 6.0 h, Median, read-out: Compound I Concentration",17.9 ng/mL
same,concentration at 8 h,"200 mg, 200 mg QD of Form B, Day 29, 8.0 h, Mean, read-out: Compound I Concentration",14.6 ng/mL
same,concentration at 8 h,"200 mg, 200 mg QD of Form B, Day 29, 8.0 h, Median, read-out: Compound I Concentration",12.1 ng/mL
same,concentration at 10 h,"200 mg, 200 mg QD of Form B, Day 29, 10.0 h, Mean, read-out: Compound I Concentration",11.1 ng/mL
same,concentration at 10 h,"200 mg, 200 mg QD of Form B, Day 29, 10.0 h, Median, read-out: Compound I Concentration",8.7 ng/mL
same,concentration at 12 h,"200 mg, 200 mg QD of Form B, Day 29, 12.0 h, Mean, read-out: Compound I Concentration",8.46 ng/mL
same,concentration at 12 h,"200 mg, 200 mg QD of Form B, Day 29, 12.0 h, Median, read-out: Compound I Concentration",8.32 ng/mL
same,concentration at 24 h,"200 mg, 200 mg QD of Form B, Day 29, […], Mean, read-out: Compound I Concentration",6.01 ng/mL
same,concentration at 24 h,"200 mg, 200 mg QD of Form B, Day 29, […], Median, read-out: Compound I Concentration",4.9 ng/mL
same,concentration at 0 h,"200 mg, Cohort 8, 200 mg BID of Form B, Day 29, 0.0 h, read-out: Compound I Concentration, Mean",9.74 ng/mL
same,concentration at 0 h,"200 mg, Cohort 8, 200 mg BID of Form B, Day 29, 0.0 h, read-out: Compound I Concentration, Min",5.47 ng/mL
same,concentration at 1 h,"200 mg, Cohort 8, 200 mg BID of Form B, Day 29, 1.0 h, read-out: Compound I Concentration, Mean",9.23 ng/mL
same,concentration at 1 h,"200 mg, Cohort 8, 200 mg BID of Form B, Day 29, 1.0 h, read-out: Compound I Concentration, Min",5.1 ng/mL
same,concentration at 2 h,"200 mg, Cohort 8, 200 mg BID of Form B, Day 29, 2.0 h, read-out: Compound I Concentration, Mean",12 ng/mL
same,concentration at 2 h,"200 mg, Cohort 8, 200 mg BID of Form B, Day 29, 2.0 h, read-out: Compound I Concentration, Min",5.56 ng/mL
same,concentration at 3 h,"200 mg, Cohort 8, 200 mg BID of Form B, Day 29, 3.0 h, read-out: Compound I Concentration, Mean",15.2 ng/mL
same,concentration at 3 h,"200 mg, Cohort 8, 200 mg BID of Form B, Day 29, 3.0 h, read-out: Compound I Concentration, Min",7.49 ng/mL
same,concentration at 4 h,"200 mg, Cohort 8, 200 mg BID of Form B, Day 29, 4.0 h, read-out: Compound I Concentration, Mean",21.1 ng/mL
same,concentration at 4 h,"200 mg, Cohort 8, 200 mg BID of Form B, Day 29, 4.0 h, read-out: Compound I Concentration, Min",7.69 ng/mL
same,concentration at 6 h,"200 mg, Cohort 8, 200 mg BID of Form B, Day 29, 6.0 h, read-out: Compound I Concentration, Max",28.1 ng/mL
same,concentration at 6 h,"200 mg, Cohort 8, 200 mg BID of Form B, Day 29, 6.0 h, read-out: Compound I Concentration, Mean",19 ng/mL
same,concentration at 6 h,"200 mg, Cohort 8, 200 mg BID of Form B, Day 29, 6.0 h, read-out: Compound I Concentration, Min",7.6 ng/mL
same,concentration at 8 h,"200 mg, Cohort 8, 200 mg BID of Form B, Day 29, 8.0 h, read-out: Compound I Concentration, Max",21.7 ng/mL
same,concentration at 8 h,"200 mg, Cohort 8, 200 mg BID of Form B, Day 29, 8.0 h, read-out: Compound I Concentration, Mean",14.6 ng/mL
same,concentration at 8 h,"200 mg, Cohort 8, 200 mg BID of Form B, Day 29, 8.0 h, read-out: Compound I Concentration, Min",7.36 ng/mL
same,concentration at 10 h,"200 mg, Cohort 8, 200 mg BID of Form B, Day 29, 10.0 h, read-out: Compound I Concentration, Max",38.6 ng/mL
same,concentration at 10 h,"200 mg, Cohort 8, 200 mg BID of Form B, Day 29, 10.0 h, read-out: Compound I Concentration, Mean",18.6 ng/mL
same,concentration at 10 h,"200 mg, Cohort 8, 200 mg BID of Form B, Day 29, 10.0 h, read-out: Compound I Concentration, Min",5.61 ng/mL
same,concentration at 12 h,"200 mg, Cohort 8, 200 mg BID of Form B, Day 29, 12.0 h, read-out: Compound I Concentration, Max",40.8 ng/mL
same,concentration at 12 h,"200 mg, Cohort 8, 200 mg BID of Form B, Day 29, 12.0 h, read-out: Compound I Concentration, Mean",19.8 ng/mL
same,concentration at 12 h,"200 mg, Cohort 8, 200 mg BID of Form B, Day 29, 12.0 h, read-out: Compound I Concentration, Min",6.32 ng/mL
same,concentration at 0 h,"300 mg, 300 mg QD of Form B, Day 1, 0.0 h, Mean, read-out: Compound I Concentration",0 ng/mL
same,concentration at 0 h,"300 mg, 300 mg QD of Form B, Day 1, 0.0 h, Median, read-out: Compound I Concentration",0 ng/mL
same,concentration at 1 h,"300 mg, 300 mg QD of Form B, Day 1, 1.0 h, Mean, read-out: Compound I Concentration",22.9 ng/mL
same,concentration at 1 h,"300 mg, 300 mg QD of Form B, Day 1, 1.0 h, Median, read-out: Compound I Concentration",3.73 ng/mL
same,concentration at 2 h,"300 mg, 300 mg QD of Form B, Day 1, 2.0 h, Mean, read-out: Compound I Concentration",16.9 ng/mL
same,concentration at 2 h,"300 mg, 300 mg QD of Form B, Day 1, 2.0 h, Median, read-out: Compound I Concentration",5.96 ng/mL
same,concentration at 3 h,"300 mg, 300 mg QD of Form B, Day 1, 3.0 h, Mean, read-out: Compound I Concentration",27.1 ng/mL
same,concentration at 3 h,"300 mg, 300 mg QD of Form B, Day 1, 3.0 h, Median, read-out: Compound I Concentration",13.4 ng/mL
same,concentration at 4 h,"300 mg, 300 mg QD of Form B, Day 1, 4.0 h, Mean, read-out: Compound I Concentration",32 ng/mL
same,concentration at 4 h,"300 mg, 300 mg QD of Form B, Day 1, 4.0 h, Median, read-out: Compound I Concentration",19.8 ng/mL
same,concentration at 6 h,"300 mg, 300 mg QD of Form B, Day 1, 6.0 h, Mean, read-out: Compound I Concentration",31.6 ng/mL
same,concentration at 6 h,"300 mg, 300 mg QD of Form B, Day 1, 6.0 h, Median, read-out: Compound I Concentration",43.1 ng/mL
same,concentration at 8 h,"300 mg, 300 mg QD of Form B, Day 1, 8.0 h, Mean, read-out: Compound I Concentration",22.7 ng/mL
same,concentration at 8 h,"300 mg, 300 mg QD of Form B, Day 1, 8.0 h, Median, read-out: Compound I Concentration",28.1 ng/mL
same,concentration at 10 h,"300 mg, 300 mg QD of Form B, Day 1, 10.0 h, Mean, read-out: Compound I Concentration",19.9 ng/mL
same,concentration at 10 h,"300 mg, 300 mg QD of Form B, Day 1, 10.0 h, Median, read-out: Compound I Concentration",18.1 ng/mL
same,concentration at 12 h,"300 mg, 300 mg QD of Form B, Day 1, 12.0 h, Mean, read-out: Compound I Concentration",15.5 ng/mL
same,concentration at 12 h,"300 mg, 300 mg QD of Form B, Day 1, 12.0 h, Median, read-out: Compound I Concentration",13.5 ng/mL
same,concentration at 24 h,"300 mg, 300 mg QD of Form B, Day 1, […], Mean, read-out: Compound I Concentration",8.09 ng/mL
same,concentration at 24 h,"300 mg, 300 mg QD of Form B, Day 1, […], Median, read-out: Compound I Concentration",8.48 ng/mL
same,concentration at 0 h,"300 mg, 300 mg QD of Form B, Day 29, 0.0 h, Mean, read-out: Compound I Concentration",13.9 ng/mL
same,concentration at 0 h,"300 mg, 300 mg QD of Form B, Day 29, 0.0 h, Median, read-out: Compound I Concentration",8.24 ng/mL
same,concentration at 1 h,"300 mg, 300 mg QD of Form B, Day 29, 1.0 h, Mean, read-out: Compound I Concentration",16.2 ng/mL
